# Data from patent publication US12439921B2 (priority 2019, dated 2025).
# How the values were obtained:
# Format in all cases: in vivo
# [1] = tested on: Heterodera glycines; assay: Heterodera glycines control test (in vitro); conditions: 10 ppm; second stage larvae; 2 days after addition; 25° C.
# Experimental: Each well of a 24-well plate was charged with 1 mL of a chemical solution prepared to have a final concentration of 0.1% acetone and a predetermined concentration of the compound (1), in which 20 to 30 larvae of Heterodera glycines at the second stage were released and left to stand in the dark at 25° C. The number of surviving and moribund worms 2 days after the addition of the chemical solution was measured. In addition, the number of surviving and moribund worms in the untreated group not treating the compound (1) was measured in the same manner, and the corrected mortal worm rate was calculated by the following formula.
# Corrected mortal worm rate (%)={(mortal worm rate of treated group−mortal worm rate of untreated group)/(100−mortal worm rate of untreated group)}×100
# [2] = tested on: Meloidogyne incognita; assay: Meloidogyne incognita control test (soil irrigation); conditions: cucumber; soil irrigation 100 ppm, 3 mL; 21 days after inoculation
# Experimental: Cucumber seeds were sown one by one in a 3 cm styrene cup filled with sterilized soil. After germination, 3 mL each of a chemical solution prepared with 10% acetone water was irrigated into the soil so that the compound (1) would be 100 ppm when irrigated into the soil. After 1 hour, 200 counts/mL of the second stage larval solution of Meloidogyne incognita were inoculated at 1 mL/pot. Then, 21 days after the inoculation, the degree of gall formation on the cucumber root was classified by a visual inspection based on the following 6-level gall formation degree criteria, and the gall index was calculated. In addition, the gall index, in the case of the treated group not treating the compound (1) (untreated), was also calculated in the same manner.
# (§1) Gall index=(0×a+1×b+2×c+3×d+4×e+5×f)/((a+b+c+d+e+f)×5)×100 a: number of strains that meet the gall formation degree criteria of 0, b: number of strains that meet the gall formation degree criteria of 1, c: number of strains that meet the gall formation degree criteria of 2, d: number of strains that meet the gall formation degree criteria of 3, e: number of strains that meet the gall formation degree criteria of 4, and f: number of strains that meet the gall formation degree criteria of 5. […]
# [3] = tested on: Cucumber seeds; assay: Cucumber phytotoxicity test (seed dressing); conditions: 0.5 mg/seed, 10 days after sowing; for Germination Count: sowing count 5
# Experimental: Cucumber seeds were sown one by one in a 3 cm styrene cup filled with sterilized soil, where the seeds had been subjected to dressing treatment with a dressing dust presented in Formulation Example 1 or Formulation Example 2 so that the amount treated of the compound (1) or compound (2) would be a predetermined amount.
# The germination rate was calculated 10 days after sowing. In addition, the germination rate was also calculated in the same manner for the case of sowing seeds treated with fluensulfone instead of Formulation Example 1 (compound (1)) or Formulation Example 2 (compound (2)) and for the case of sowing seeds treated with none of the compounds.
# [4] = tested on: Meloidogyne incognita; assay: Meloidogyne incognita control test 1 (seed dressing); conditions: cucumber; seed dressing 0.5 mg/seed; 21 days after inoculation
# Experimental: Cucumber seeds were sown one by one in a 3 cm styrene cup filled with sterilized soil, where the seeds had been subjected to dressing treatment with a dressing dust presented in Formulation Example 1 so that the amount treated of the compound (1) would be a predetermined amount. Then, 10 days after sowing, 200 counts/mL of the second stage larval solution of Meloidogyne incognita was inoculated at 1 mL for each seed. Then, 21 days after the inoculation, the degree of gall formation on the cucumber root was classified by a visual inspection based on the following 6-level gall formation degree criteria, and the gall index was calculated. In addition, the gall index was also calculated in the same manner for the case of sowing seeds treated with paraherquamide A instead of Formulation Example 1 (compound (1)) and for the case of sowing seeds treated with none of the compounds.
# as §1, with “index=(0×a+1×b+2×c+3×d+4×e+5×f)/((a+b+c+d+e+f) ×5)×100 •” for “index=(0×a+1×b+2×c+3×d+4×e+5×f)/((a+b+c+d+e+f)×5)×100”
# [5] = tested on: Ascaridia galli; assay: Ascaridia galli control test (in vitro); conditions: 50 ppm; 24 hours; 42° C.
# Experimental: To 10 mL of a chemical solution prepared by using Ringer's solution so that the compound (1) or the compound (2) would have a predetermined concentration, 6 Ascaridia galli were introduced, and the solution was cultured in a water bath at 42° C. The number of surviving worms was counted 24 hours after the start of culture, and the mortal worm rate was calculated.
# [6] = tested on: Hymenolepis diminuta; assay: Hymenolepis diminuta control test in infected rats; conditions: oral 20 mg/kg, 7 days after administration
# Source text: Rats were previously infected with Hymenolepis diminuta to prepare infected rats.
# [7] = tested on: Bursaphelenchus xylophilus; assay: Bursaphelenchus xylophilus control test (cotton ball test method); parameters: key: Score 1: no influence on feeding (no effect); Score 2: feeding degree of 41% or more; Score 3: feeding degree of 21 to 40%; Score 4: feeding degree of 20% or less; Score 5: no feeding (great effect); conditions: 26° C., 5 days
# Experimental: As a Bursaphelenchus xylophilus control test, the cotton ball test method was used to confirm the inhibitory effect on the proliferation of Bursaphelenchus xylophilus. […] The pressure was reduced in a desiccator for about 30 minutes, the solvent was removed by evaporation, and a test cotton ball was obtained. In addition, the gray mold as the test bacterium was cultured at 22° C. for 4 days in a Petri dish containing potato dextrose agar medium. Then, the test cotton ball was placed in the center of the Petri dish, and 1500 Bursaphelenchus xylophilus (100 μL of solution) were injected therein. This Petri dish was cultured at 26° C. for 5 days, and the feeding degree of the gray mold by Bursaphelenchus xylophilus was evaluated based on the following evaluation criteria. Further, evaluation was performed in the same manner when morantel was used instead of the compound (1) or (2).
# Score 1: no influence on feeding (no effect)
# Score 2: feeding degree of 41% or more
# Score 3: feeding degree of 21 to 40%
# Score 4: feeding degree of 20% or less
# Score 5: no feeding (great effect)
# [8] = tested on: wheat; assay: Wheat growth effect test; conditions: 3 days; for Plant Height Relative to Untreated: untreated = 100; for Plant Height: root immersion
# Experimental: Each well of a 24-well plate was charged with 200 μL of a chemical solution prepared to have a final concentration of 10% acetone and a predetermined concentration of the compound (1), and the root of the sprouting wheat was immersed therein. Then, 3 days after the immersion, the plant height of the stems and leaves was measured to evaluate the effect of the compound (1) on the growth of wheat. In addition, the plant height of the stems and leaves was also measured for the case of sowing seeds not treated with the compound (1) (untreated). Note that Table 8 also presents the relative values of plant height (relative to untreated) when the untreated case was set to 100.
Structure (SMILES),Germination Rate [3] [%],Germination Count [3],Gall Index [4],mortal worm rate [5],control effect [6],"Score (feeding degree of the gray mold) ([7]; 20 μg/cotton ball, 200 ppm)",also measured
"C[C@H]1CC(=O)N2C[C@]34C[C@]5(CC(=O)N(C)C5=O)C(C)(C)[C@@H]3CC12C(=O)N4C [Compound (1), 16-keto-aspergillimide]",100,5,8,0,no effect,1,corrected mortal worm rate [1]: 100%; Gall Index [2]: 0; Plant Height Relative to Untreated ([8]; 50 ppm): 106.1; Plant Height ([8]; 50 ppm): 9.87 cm; Plant Height Relative to Untreated ([8]; 100 ppm): 98.9; Plant Height ([8]; 100 ppm): 9.20 cm; Plant Height Relative to Untreated ([8]; 200 ppm): 98.9; Plant Height ([8]; 200 ppm): 9.20 cm
"C[C@H]1CCN2C[C@@]34C[C@]5(CC(=O)N(C)C5=O)C(C)(C)[C@@H]3C[C@]12C(=O)N4C [Compound (2), asperparaline A]",100,5,,0,no effect,1,
"O=S(=O)(CCC(F)=C(F)F)c1ncc(Cl)s1 [Fluensulfone, fluensulfone, reference compound]",0,0,,,,,
"Cc1ccsc1/C=C/C1=NCCCN1C [Morantel, morantel, reference compound]",,,,,,,"Score (feeding degree of the gray mold) ([7]; 5 μg/cotton ball, 50 ppm): 5"
"CN1C(=O)[C@]23C[C@@H]4C(C)(C)[C@@]5(C[C@@]41CN2CC[C@@]3(C)O)C(=O)Nc1c5ccc2c1OC=CC(C)(C)O2 [Paraherquamide A, paraherquamide A, reference compound]",,,44,,,,
